# In US10413545B2, “Imidazolin-5-one derivative useful as FASN inhibitors for the treatment of cancer” (Janssen Pharmaceutica NV, priority 2013, dated 2019):
# Like-named read-outs stand apart in the source and are kept apart here.
# Legend:
# Type in all cases: cell-based
# A2780 ovarian cells = test: A2780 Ovarian Cell Proliferation Assay in Lipid Reduced Medium, with and without Palmitate (MTT); conditions: Homo sapiens, 10% lipid-reduced serum, 96 h
# [1] = test system: LNCaP_Vancouver prostate cells; test: In Vitro LNCaP Vancouver Prostate Cell Proliferation Assay in Lipid Reduced Medium; conditions: Prostate cell; 10% lipid reduced serum, 96 h, ATP-glow luminescence; read-out: pIC50 LNCaP_Vancouver prostate cell (converted)
# Protocol: LNCaP_Vancouver prostate cells were obtained from the Vancouver Prostate Cancer Centre.
# The next day 10 μl of test compound/DMSO diluted in medium was added (3E-5M, 1E-5M, 3E-6M,1E-6M, 3E-7M, 1E-7M, 3E-8M, 1E-8M final concentration). Compounds were tested in duplicate. After 96 h incubation at 37° C., 5% CO2 25 μl ATP-glow mix was added. The plate was incubated for 30 min at 37° C. and luminescence was measured with the Envision.
# Analysis: Determination of pIC50 Values
# pIC50 values were calculated as follows. Raw data generated by the instruments were normalized to % Controlmin values, which were calculated as: % Controlmin=100*(x−mLC)/(mHC−mLC),
# where mLC and mHC are the means of the low control wells and high control wells on the plate, after manual exclusion of outliers. The relation between the % Controlmin values and concentration was fitted to a 4-parameter logistic curve using a non-linear least squares regression method to determine the pIC50 value. Outlying data points were excluded manually to get a correct fit. The pIC50 corresponds to −log 10(IC50), if the IC50 is expressed in molar units (http://www.ncbi.nlm.nih.qovibooks/NBK91994). The IC50 parameter was always determined by non-linear regression, but one or more of the other parameters may have been held fixed on a relevant input value, such as 0 for the bottom values.
# [2] = test system: PC-3M-Luc-C6 prostate cells; test: In Vitro PC-3M-Luc-C6 Prostate Cell Proliferation Assay in Lipid Reduced Medium; conditions: Prostate cell, read-out: pIC50 PC-3M-Luc-C6 prostate cell (converted); 10% lipid reduced serum, 96 h, ATP-glow luminescence
# [3] = 25 μM palmitate added (control), read-out: pIC50 With Palmitate (converted)
# [4] = no palmitate, read-out: pIC50 Without Palmitate (converted)
IC50 (A2780 ovarian cells; [3]) [nM],IC50 (A2780 ovarian cells; [4]) [nM],IC50 [1] [nM],IC50 [2] [nM],Compound
> 10000,1230,~2820,1290,"CC1(C)N=C(c2ccc(-c3ccc4cc(F)ccc4c3)cc2)N(CC2CN(C(=O)C3CC3)C2)C1=O [Compound 29, 1-((1-(cyclopropanecarbonyl)azetidin-3-yl)methyl)-2-(4-(6-fluoronaphthalen-2-yl)phenyl)-4,4-dimethyl-1H-imidazol-5(4H)-one]"
> 10000,1230,3390,490,"CC1(C)N=C(c2ccc(-c3ccc4cc(F)ccc4c3)cc2)N(C[C@@H]2CCN(C(=O)C3CC3)C2)C1=O [Compound 30, (R)-1-((1-(cyclopropanecarbonyl)pyrrolidin-3-yl)methyl)-2-(4-(6-fluoronaphthalen-2-yl)phenyl)-4,4-dimethyl-1H-imidazol-6(4H)-one]"
> 10000,~1000,912,~617,"CC1(C)N=C(c2ccc(-c3cccc4ncccc34)cc2)N(C[C@@H]2CCN(C(=O)C3CC3)C2)C1=O [Compound 31, (R)-1-((1-(cyclopropanecarbonyl)pyrrolidin-3-yl)methyl)-4,4-dimethyl-2-(4-(quinolin-5-yl)phenyl)-1H-1-imidazol-5(4H)-one]"
> 10000,977,4680,1480,"Cn1ncc2cc(-c3ccc(C4=NC(C)(C)C(=O)N4CC4CN(C(=O)C5CC5)C4)c(F)c3)ccc21 [Compound 32, 1-((1-(cyclopropanecarbonyl)azetidin-3-yl)methyl)-2-(2-fluoro-4-(1-methyl-1H-indazol-5-yl)phenyl)-4,4-dimethyl-1H-imidazol-5(4H)-one]"
> 10000,1000,2630,832,"CC1(C)N=C(c2ccc(-c3nc4ccccc4s3)cc2F)N(CC2CN(C(=O)C3CC3)C2)C1=O [Compound 34, 2-(4-(benzo[d]thiazol-2-yl)-2-fluorophenyl)-1-((1-(cyclopropanecarbonyl)azetidin-3-yl)methyl)-4,4-dimethyl-1H-imidazol-5(4H)-one]"
> 10000,~91.2,269,95.5,"CC1(C)N=C(c2ccc(-c3ccc4cccnc4c3)cc2F)N(CC2CN(C(=O)C3CC3)C2)C1=O [Compound 39, 1-((1-(cyclopropanecarbonyl)azetidin-3-yl)methyl)-2-(2-fluoro-4-(quinolin-7-yl)phenyl)-4,4-dimethyl-1H-imidazol-5(4H)-one]"
> 10000,~347,1150,417,"CC1(C)N=C(c2ccc(-c3ccc4cccc(F)c4c3)cc2)N(C[C@@H]2CCN(C(=O)C3CC3)C2)C1=O [Compound 41, (R)-1-((1-(cyclopropanecarbonyl)pyrrolidin-3-yl)methyl)-2-(4-(8-fluoronaphthalen-2-yl)phenyl)-4,4-dimethyl-1H-imidazol-5(4H)-one]"
> 10000,~191,1000,417,"CC1(C)N=C(c2ccc(-c3ccc4cncnc4c3)cc2)N(C[C@@H]2CCN(C(=O)C3CC3)C2)C1=O [Compound 42, (R)-1-((1-(cyclopropanecarbonyl)pyrrolidin-3-yl)methyl)-4,4-dimethyl-2-(4-(quinazolin-7-yl)phenyl)-1H-imidazol-5(4H)-one]"
> 10000,46.8,389,47.9,"CC1(C)N=C(c2ccc(-c3ccc4cncnc4c3)cc2F)N(C[C@@H]2CCN(C(=O)C3CC3)C2)C1=O [Compound 44, (R)-1-((1-(cyclopropanecarbonyl)pyrrolidin-3-yl)methyl)-2-(2-fluoro-4-(quinazolin-7-yl)phenyl)-4,4-dimethyl-1H-imidazol-5(4H)-one]"
> 10000,26.3,117,67.6,Cn1cc(-c2ccc(-c3ccc(C4=NC(C)(C)C(=O)N4C[C@@H]4CCN(C(=O)C5CC5)C4)c(F)c3)cc2)cn1 [Compound 45]
> 10000,14.1,200,~24,"CC1(C)N=C(c2ccc(-c3ccc4cccnc4c3)cc2F)N(C[C@@H]2CCN(C(=O)C3CC3)C2)C1=O [Compound 49, (R)-1-((1-(cyclopropanecarbonyl)pyrrolidin-3-yl)methyl)-2-(2-fluoro-4-(quinolin-7-yl)phenyl)-4,4-dimethyl-1H-imidazol-5(4H)-one]"
> 10000,288,794,324,"CC1(C)N=C(c2ccc(-c3nc4ccccc4o3)cc2F)N(C[C@@H]2CCN(C(=O)C3CC3)C2)C1=O [Compound 51, (R)-2-(4-(benzo[d]oxazol-2-yl)-2-fluorophenyl)-1-((1-(cyclopropanecarbonyl)pyrrolidin-3-yl)methyl)-4,4-dimethyl-1H-imidazol-5(4H)-one]"
> 10000,708,1290,776,"CC1(C)N=C(c2ccc(-c3nc4ccccc4o3)cc2F)N(CC2CN(C(=O)C3CC3)C2)C1=O [Compound 52, 2-(4-(benzo[d]oxazol-2-yl)-2-fluorophenyl)-1-((1-(cyclopropanecarbonyl)azetidin-3-yl)methyl)-4,4-dimethyl-1H-imidazol-5(4H)-one]"
> 10000,263,1260,~912,"CC1(C)N=C(c2ccc(-c3c[nH]c4ccccc34)cc2)N(C[C@@H]2CCN(C(=O)C3CC3)C2)C1=O [Compound 65, (R)-2-(4-(1H-indol-3-yl)phenyl)-1-((1-(cyclopropanecarbonyl)pyrrolidin-3-yl)methyl)-4,4-dimethyl-1H-imidazol-5(4H)-one]"
–,~195,407,145,"CC1(C)N=C(c2ccc(-c3ccc4cccc(F)c4c3)cc2F)N(C[C@@H]2CCN(C(=O)C3CC3)C2)C1=O [Compound 67, (R)-1-((1-(cyclopropanecarbonyl)pyrrolidin-3-yl)methyl)-2-(2-fluoro-4-(8-fluoronaphthalen-2-yl)phenyl)-4,4-dimethyl-1H-imidazol-5(4H)-one]"
> 10000,24.5,135,11,Cn1cc(-c2ccc(-c3ccc(C4=NC(C)(C)C(=O)N4CC4CN(C(=O)C5(C)CC5)C4)c(F)c3)cc2)cn1 [Compound 70]
7760,~25.7,295,26.9,"CC1(C(=O)N2CC(CN3C(=O)C(C)(C)N=C3c3ccc(-c4ccc5cc(F)ccc5c4)cc3F)C2)CC1 [Compound 72, 2-(2-fluoro-4-(6-fluoronaphthalen-2-yl)phenyl)-4,4-dimethyl-1-((1-(1-methylcyclopropanecarbonyl)azetidin-3-yl)methyl)-1H-imidazol-5(4H)-one]"
> 10000,13.5,398,18.6,"Cn1ncc2cc(-c3ccc(C4=NC(C)(C)C(=O)N4C[C@@H]4CCN(C(=O)C5(C)CC5)C4)c(F)c3)ccc21 [Compound 73, (R)-2-(2-fluoro-4-(1-methyl-1H-indazol-5-yl)phenyl)-4,4-dimethyl-1-((1-(1-methylcyclopropanecarbonyl)pyrrolidin-3-yl)methyl)-1H-imidazol-5(4H)-one]"
